According to patent US11542262B2, “Phosphatidylinositol 3-kinase inhibitors” (NANJING ZHENGXIANG PHARMACEUTICALS CO., LTD., priority 2019, dated 2023):

Experiments:
[1] = biological target: PI3Kγ (Homo sapiens, UniProt P48736); assay: ADP-Glo luminescent assay, enzymatic activity of PI3K gamma; format: biochemical; details: ATP 25 μM; read-out: PI3K gamma (nM) inhibitory activity (IC50)
Description: The compounds would be tested from 1 or 10 μM, 3-fold dilution for 10 doses, in duplicate.
Compound preparation: Dilute a compound to 100× of the final desired highest inhibitor concentration in reaction by 100% DMSO. Transfer 100 μl of this compound dilution to a well in a 96-well plate and serially dilute it with DMSO for a total of 10 concentrations.
Kinase reaction: Prepare a solution of PI3K in 1× kinase buffer at 2-fold the final concentration of each reagent in the assay. Control wells contain 1× kinase buffer without enzyme. Prepare substrate solution of PIP2 substrate and ATP in 1× kinase reaction buffer at 2-fold of the final concentration. Add concentration substrate solution to each well to the final concentration. Cover the assay plate, shake to mix, and incubate at room temperature for 1 hour. Add 5 μl of ADP-Glo reagent to each well to stop the reaction. […] Add 10 ul Kinase Detection Reagent to each well, shake 1 min, equilibrate for 30 min before reading on a luminescence plate reader.
Data Analysis: Convert RLU values to percent inhibition values as Percent inhibition=(max−sample RLU)/(max−min)*100. “min”—no enzyme control; “max”—DMSO control. Fit the data in XLFit excel add-in version 5.4.0.8 to obtain IC50 values. Y=Bottom+(Top−Bottom)/(1+(IC50/X)^HillSlope).

[2] = biological target: T1, PI3K gamma (Mus musculus, UniProt Q9JHG7); assay: Raw264.7 cell assay: phosphorylation of AKT in C5a stimulated RAW264.7 cells (AlphaLISA); format: cell-based; details: pAKT, read-out: PI3K gamma Raw264.7 cell (nM) cellular activity (IC50)
T1 construct: endogenous in cells; host or cells: RAW264.7
T1 sequence (Q9JHG7 whole entry): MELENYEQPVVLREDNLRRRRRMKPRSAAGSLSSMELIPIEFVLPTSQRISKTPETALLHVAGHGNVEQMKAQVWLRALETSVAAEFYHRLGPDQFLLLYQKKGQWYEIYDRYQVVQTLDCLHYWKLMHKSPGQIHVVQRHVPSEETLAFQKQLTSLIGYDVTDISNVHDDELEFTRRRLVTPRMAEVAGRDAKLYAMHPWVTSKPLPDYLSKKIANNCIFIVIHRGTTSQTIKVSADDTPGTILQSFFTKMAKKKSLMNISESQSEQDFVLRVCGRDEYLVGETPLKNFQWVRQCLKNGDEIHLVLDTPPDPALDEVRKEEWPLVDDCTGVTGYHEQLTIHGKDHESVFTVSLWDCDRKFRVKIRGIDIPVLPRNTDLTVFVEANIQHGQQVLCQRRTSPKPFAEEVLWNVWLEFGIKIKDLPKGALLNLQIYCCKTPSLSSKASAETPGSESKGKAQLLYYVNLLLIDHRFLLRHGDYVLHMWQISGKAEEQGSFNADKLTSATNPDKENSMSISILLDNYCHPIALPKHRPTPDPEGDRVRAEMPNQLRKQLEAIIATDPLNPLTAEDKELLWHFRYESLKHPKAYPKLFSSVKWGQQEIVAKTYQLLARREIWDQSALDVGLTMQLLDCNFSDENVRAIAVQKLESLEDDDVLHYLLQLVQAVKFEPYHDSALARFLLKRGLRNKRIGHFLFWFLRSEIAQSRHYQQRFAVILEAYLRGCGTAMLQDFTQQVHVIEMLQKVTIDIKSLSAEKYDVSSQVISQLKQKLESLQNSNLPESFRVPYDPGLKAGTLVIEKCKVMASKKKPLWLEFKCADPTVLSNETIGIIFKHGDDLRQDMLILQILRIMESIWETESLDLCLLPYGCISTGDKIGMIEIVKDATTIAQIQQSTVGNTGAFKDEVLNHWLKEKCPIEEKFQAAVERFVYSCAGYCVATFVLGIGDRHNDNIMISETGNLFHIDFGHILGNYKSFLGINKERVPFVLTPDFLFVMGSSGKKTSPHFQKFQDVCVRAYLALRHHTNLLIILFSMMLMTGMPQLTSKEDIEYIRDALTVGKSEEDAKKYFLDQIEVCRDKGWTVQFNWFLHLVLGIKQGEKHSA
T1 sequence (Q5SW28 whole entry partner): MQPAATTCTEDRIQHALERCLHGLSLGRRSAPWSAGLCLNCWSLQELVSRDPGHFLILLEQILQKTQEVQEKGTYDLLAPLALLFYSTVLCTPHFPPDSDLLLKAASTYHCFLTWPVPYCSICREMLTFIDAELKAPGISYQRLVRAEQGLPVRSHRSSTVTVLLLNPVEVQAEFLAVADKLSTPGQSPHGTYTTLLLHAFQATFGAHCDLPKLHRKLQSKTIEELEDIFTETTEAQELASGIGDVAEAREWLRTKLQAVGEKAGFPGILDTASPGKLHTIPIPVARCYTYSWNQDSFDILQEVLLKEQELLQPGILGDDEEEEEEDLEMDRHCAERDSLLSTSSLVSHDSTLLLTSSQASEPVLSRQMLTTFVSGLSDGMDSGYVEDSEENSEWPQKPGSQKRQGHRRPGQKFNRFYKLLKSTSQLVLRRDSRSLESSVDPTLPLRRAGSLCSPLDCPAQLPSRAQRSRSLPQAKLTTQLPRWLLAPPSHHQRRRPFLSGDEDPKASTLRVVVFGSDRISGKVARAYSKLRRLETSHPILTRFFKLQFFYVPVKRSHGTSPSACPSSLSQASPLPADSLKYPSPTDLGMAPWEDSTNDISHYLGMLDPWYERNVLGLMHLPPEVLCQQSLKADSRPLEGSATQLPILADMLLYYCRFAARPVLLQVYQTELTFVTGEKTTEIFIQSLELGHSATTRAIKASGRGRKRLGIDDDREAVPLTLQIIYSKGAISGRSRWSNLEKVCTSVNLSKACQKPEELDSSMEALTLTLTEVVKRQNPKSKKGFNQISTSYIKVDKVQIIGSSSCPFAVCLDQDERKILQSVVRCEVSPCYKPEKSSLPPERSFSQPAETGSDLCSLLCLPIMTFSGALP
Description: This study aims to determine the inhibitory effect of compounds on PI3K gamma and PI3K delta in corresponding cell based assays. PI3K gamma activity was reflected by phosphorylation of AKT in C5a stimulated RAW264.7 cells, and PI3K delta activity was reflected by phosphorylation of AKT in anti-IgM stimulated Raji cells. Phosphorylation of AKT in cells was determined using AlphaLISA technology from PerkinElmer.
Raw264.7 cell assay: Prepare Passage 15 Raw264.7 cell and add 6 μL of 30K cells per well in 384-well plate by multidrop. Centrifuge at 500 RPM for 30 s and incubate for 2 hours at 37° C., 5% CO2. Add 30 nL compound by echo and incubate for 30 min at 37° C., 5% CO2. […] Add 2 μL of 5× lysis buffer by multidrop, incubate for 10 min on a plate shaker. Add 5 μL acceptor mix provided in the kit, centrifuge at 1000 RPM for 1 min. Add 5 μL donor mix provided in the kit, centrifuge at 1000 RPM for 1 min and incubate in dark for 2 hours at 25° C. Read AlphaLISA signal on Envision.
Y=Bottom+(Top−Bottom)/(1+10^((Log IC50−X)*Hill Slope)) X: Log of cpd concentration Y: Inhibition

Chain of PI3Kγ (P48736 whole entry, species assumed): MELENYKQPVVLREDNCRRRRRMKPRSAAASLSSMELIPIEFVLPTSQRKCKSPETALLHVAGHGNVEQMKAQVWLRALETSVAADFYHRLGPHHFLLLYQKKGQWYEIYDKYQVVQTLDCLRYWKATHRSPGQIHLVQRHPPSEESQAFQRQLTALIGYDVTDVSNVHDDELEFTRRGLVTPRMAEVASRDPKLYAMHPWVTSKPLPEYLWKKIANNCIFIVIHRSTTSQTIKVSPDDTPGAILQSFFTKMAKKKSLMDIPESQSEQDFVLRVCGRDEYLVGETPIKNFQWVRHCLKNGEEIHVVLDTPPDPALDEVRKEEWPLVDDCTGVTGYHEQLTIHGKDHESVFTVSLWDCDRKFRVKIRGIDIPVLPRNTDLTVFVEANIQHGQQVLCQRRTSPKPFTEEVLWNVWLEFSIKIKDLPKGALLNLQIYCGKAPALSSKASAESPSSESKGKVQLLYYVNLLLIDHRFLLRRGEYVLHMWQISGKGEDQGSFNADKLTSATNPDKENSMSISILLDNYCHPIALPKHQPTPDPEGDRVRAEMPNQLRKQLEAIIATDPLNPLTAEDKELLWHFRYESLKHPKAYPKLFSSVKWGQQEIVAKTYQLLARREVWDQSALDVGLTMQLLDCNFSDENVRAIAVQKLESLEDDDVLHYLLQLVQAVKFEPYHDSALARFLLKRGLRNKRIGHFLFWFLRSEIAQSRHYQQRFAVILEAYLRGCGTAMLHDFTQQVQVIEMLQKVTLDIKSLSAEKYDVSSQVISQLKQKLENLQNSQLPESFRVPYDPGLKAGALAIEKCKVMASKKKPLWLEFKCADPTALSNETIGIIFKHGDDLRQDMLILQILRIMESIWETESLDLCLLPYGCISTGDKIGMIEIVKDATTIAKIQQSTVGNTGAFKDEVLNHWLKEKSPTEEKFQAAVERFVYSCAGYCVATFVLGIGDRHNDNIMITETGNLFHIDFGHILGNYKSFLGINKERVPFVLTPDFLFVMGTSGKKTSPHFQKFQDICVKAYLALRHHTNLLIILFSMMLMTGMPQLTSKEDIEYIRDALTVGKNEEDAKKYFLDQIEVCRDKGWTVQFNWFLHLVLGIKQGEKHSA

Compound	IC50 [1]	IC50 [2]
CC[S@@+]([O-])c1cc(-c2sc(NC(C)=O)nc2C)cc2c1C(=O)N([C@@H](C)C1CC1)C2 (racemic) [Compound 13, N-(5-(2-((S)-1-cyclopropylethyl)-7-(ethylsulfinyl)-1-oxoisoindolin-5-yl)-4-methylthiazol-2-yl)acetamide]	3.1 nM	22 nM
CC(=O)Nc1nc(C)c(-c2cc3c(c([S+](C)[O-])c2)C(=O)N(C(C)(C)C)C3)s1 (racemic) [Compound 17, N-(5-(2-(tert-butyl)-7-(methylsulfinyl)-1-oxoisoindolin-5-yl)-4-methylthiazol-2-yl)acetamide]	4.5 nM	118 nM
CC(=O)Nc1nc(C(F)F)c(-c2cc3c(c([S@@+](C)[O-])c2)C(=O)N([C@@H](C)C2CC2)C3)s1 (racemic) [Compound 18, N-(5-(2-((S)-1-cyclopropylethyl)-7-(methylsulfinyl)-1-oxoisoindolin-5-yl)-4-(difluoromethyl)thiazol-2-yl)acetamide]	16 nM	–
Cc1nc(NC(=O)C2CC2)sc1-c1cc2c(c(P(C)(C)=O)c1)C(=O)N([C@@H](C)C1CC1)C2 [Compound 3, (S)-N-(5-(2-(1-cyclopropylethyl)-7-(dimethylphosphoryl)-1-oxoisoindolin-5-yl)-4-methylthiazol-2-yl)cyclopropanecarboxamide]	7.7 nM	–
Cc1nc(NC(=O)C(C)C)sc1-c1cc2c(c(P(C)(C)=O)c1)C(=O)N([C@@H](C)C1CC1)C2 [Compound 4, (S)-N-(5-(2-(1-cyclopropylethyl)-7-(dimethylphosphoryl)-1-oxoisoindolin-5-yl)-4-methylthiazol-2-yl)isobutyramide]	4.5 nM	1850 nM
CCP(=O)(CC)c1cc(-c2sc(NC(C)=O)nc2C)cc2c1C(=O)N([C@@H](C)C1CC1)C2 [Compound 5, (S)-N-(5-(2-(1-cyclopropylethyl)-7-(diethylphosphoryl)-1-oxoisoindolin-5-yl)-4-methylthiazol-2-yl)acetamide]	5.9 nM	307 nM
CC(=O)Nc1nc(C)c(-c2ccc3c(n2)CN([C@@H](C)C2CC2)C3=O)s1 [Compound 9, (S)-N-(5-(6-(1-cyclopropylethyl)-5-oxo-6,7-dihydro-5H-pyrrolo[3,4-b]pyridin-2-yl)-4-methylthiazol-2-yl)acetamide]	22 nM	–
CC(=O)Nc1nc(C)c(-c2cc3c(c(N4CCCC4=O)n2)C(=O)N([C@@H](C)C2CC2)C3)s1 [Compound 25, (S)-N-(5-(2-(1-cyclopropylethyl)-3-oxo-4-(2-oxopyrrolidin-1-yl)-2,3-dihydro-M-pyrrolo[3,4-c]pyridin-6-yl)-4-methylthiazol-2-yl)acetamide]	3.8 nM	446 nM
CC(=O)Nc1nc(C)c(-c2cc3c(c(C)n2)C(=O)N([C@@H](C)C2CC2)C3)s1 [Compound 27, (S)-N-(5-(2-(1-cyclopropylethyl)-4-methyl-3-oxo-2,3-dihydro-1H-pyrrolo[3,4-c]pyridin-6-yl)-4-methylthiazol-2-yl)acetamide]	29 nM	29 nM
CC(=O)Nc1nc(C)c(-c2cc3c(c(NC(=O)N(C)C)n2)C(=O)N([C@@H](C)C2CC2)C3)s1 [Compound 28, (S)-N-(5-(2-(1-cyclopropylethyl)-4-(3,3-dimethylureido)-3-oxo-2,3-dihydro-1H-pyrrolo[3,4-c]pyridin-6-yl)-4-methylthiazol-2-yl)acetamide]	1.5 nM	65 nM
CC(=O)Nc1nc(C)c(-c2cc3c(c(C(=O)N(C)C)n2)C(=O)N([C@@H](C)C2CC2)C3)s1 [Compound 29, (S)-6-(2-acetamido-4-methylthiazol-5-yl)-2-(1-cyclopropylethyl)-N,N-dimethyl-3-oxo-2,3-dihydro-1H-pyrrolo[3,4-c]pyridine-4-carboxamide]	2.5 nM	3240 nM
CNC(=O)c1nc(-c2sc(NC(C)=O)nc2C)cc2c1C(=O)N([C@@H](C)C1CC1)C2 [Compound 32, (S)-6-(2-acetamido-4-methylthiazol-5-yl)-2-(1-cyclopropylethyl)-N-methyl-3-oxo-2,3-dihydro-1H-pyrrolo[3,4-c]pyridine-4-carboxamide]	2.2 nM	208 nM
CC(=O)Nc1nc(C)c(-c2cc3c(c(C(=O)N4CCOCC4)n2)C(=O)N([C@@H](C)C2CC2)C3)s1 [Compound 33, (S)-N-(5-(2-(1-cyclopropylethyl)-4-(morpholine-4-carbonyl)-3-oxo-2,3-dihydro-1H-pyrrolo[3,4-c]pyridin-6-yl)-4-methylthiazol-2-yl)acetamide]	6.5 nM	–
[2H]C([2H])([2H])Oc1nc(-c2sc(NC(C)=O)nc2C)cc2c1C(=O)N([C@@H](C)C1CC1)C2 [Compound 43, (S)-N-(5-(2-(1-cyclopropylethyl)-4-(methoxy-d3)-3-oxo-2,3-dihydro-1H-pyrrolo[3,4-c]pyridin-6-yl)-4-methylthiazol-2-yl)acetamide]	2.6 nM	–
CC(=O)Nc1nc(C)c(-c2cc3c(c(N4CCC(O)C4)n2)C(=O)N([C@@H](C)C2CC2)C3)s1 (stereo partly drawn) [Compound 47, N-(5-(2-((S)-1-cyclopropylethyl)-4-(3-hydroxypyrrolidin-1-yl)-3-oxo-2,3-dihydro-1H-pyrrolo[3,4-c]pyridin-6-yl)-4-methylthiazol-2-yl)acetamide]	0.61 nM	–
CC(=O)Nc1nc(C)c(-c2cc3c(c(OC4CCOC4)n2)C(=O)N([C@@H](C)C2CC2)C3)s1 (stereo partly drawn) [Compound 51, N-(5-(2-((S)-1-cyclopropylethyl)-3-oxo-4-((tetrahydrofuran-3-yl)oxy)-2,3-dihydro-1H-pyrrolo[3,4-c]pyridin-6-yl)-4-methylthiazol-2-yl)acetamide]	0.65 nM	–

Further molecules by falling IC50 [1], results first:

IC50 [1]	IC50 [2]	Compound
56 nM	–	CC(=O)Nc1nc(C)c(-c2cc3c(c(C(=O)O)n2)C(=O)N([C@@H](C)C2CC2)C3)s1 [Compound 30, (S)-6-(2-acetamido-4-methylthiazol-5-yl)-2-(1-cyclopropylethyl)-3-oxo-2,3-dihydro-1H-pyrrolo[3,4-c]pyridine-4-carboxylic acid]
9 nM	–	CC(=O)Nc1nc(C)c(-c2cc3c(c(N4CCOCC4)n2)C(=O)N(C(C)C(F)(F)F)C3)s1 (stereo in doubt) [Compound 37, (S)-N-(4-methyl-5-(4-morpholino-3-oxo-2-(1,1,1-trifluoropropan-2-yl)-2,3-dihydro-1H-pyrrolo[3,4-c]pyridin-6-yl)thiazol-2-yl)acetamide]
4.2 nM	27 nM	CC(=O)Nc1nc(C)c(-c2cc3c(c([S+]([O-])C(C)C)c2)C(=O)N([C@@H](C)C2CC2)C3)s1 (mixture of isomers) [Compound 14, N-(5-(2-((S)-1-cyclopropylethyl)-7-(isopropylsulfinyl)-1-oxoisoindolin-5-yl)-4-methylthiazol-2-yl)acetamide]
3.7 nM	271 nM	CC(=O)Nc1nc(C)c(-c2cc3c(c(N4CCNCC4)n2)C(=O)N([C@@H](C)C2CC2)C3)s1 [Compound 39, (S)-N-(5-(2-(1-cyclopropylethyl)-3-oxo-4-(piperazin-1-yl)-2,3-dihydro-1H-pyrrolo[3,4-c]pyridin-6-yl)-4-methylthiazol-2-yl)acetamide]
2.3 nM	–	CC(=O)Nc1nc(C)c(-c2cc3c(c(C(N)=O)n2)C(=O)N([C@@H](C)C2CC2)C3)s1 [Compound 31, (S)-6-(2-acetamido-4-methylthiazol-5-yl)-2-(1-cyclopropylethyl)-3-oxo-2,3-dihydro-1H-pyrrolo[3,4-c]pyridine-4-carboxamide]
1.8 nM	–	CC(=O)Nc1nc(Cl)c(-c2cc3c(c(N4CCOCC4)n2)C(=O)N([C@@H](C)C2CC2)C3)s1 [Compound 53, (S)-N-(4-chloro-5-(2-(1-cyclopropylethyl)-4-morpholino-3-oxo-2,3-dihydro-1H-pyrrolo[3,4-c]pyridin-6-yl)thiazol-2-yl)acetamide]
0.8 nM	–	CC(=O)Nc1nc(C)c(-c2cc3c(c(NC(=O)C4CC4C#N)n2)C(=O)N([C@@H](C)C2CC2)C3)s1 (stereo partly drawn) [Compound 45, N-(6-(2-acetamido-4-methylthiazol-5-yl)-2-((S)-1-cyclopropylethyl)-3-oxo-2,3-dihydro-1H-pyrrolo[3,4-c]pyridin-4-yl)-2-cyanocyclopropane-1-carboxamide]
